Numbers after ± are expanded uncertainties.
Assay: refractive index (Na D-line) (dimensionless); wn = mass fraction of the nth substance listed
Conditions: 298.15 K, 101 kPa, Liquid, Standard Abbe refractometry

CN1CCCC1=O [N-methylpyrrolidone] + O
refractive index (w1 = 0.0958): 1.3462 ± 0.0005 | refractive index (w1 = 0.0961): 1.3462 ± 0.0005

CC#N [acetonitrile] + O
refractive index (w1 = 0.0473): 1.3425 ± 0.0005 | refractive index (w1 = 0.0477): 1.3404 ± 0.0005

O=C([O-])[O-].[Na+].[Na+] [sodium carbonate] + O
refractive index (w1 = 0.0473): 1.3426 ± 0.0005 | refractive index (w1 = 0.097): 1.3378 ± 0.0005

O=C([O-])[O-].[K+].[K+] [potassium carbonate] + O
refractive index (w1 = 0.0475): 1.3401 ± 0.0005 | refractive index (w1 = 0.0968): 1.3378 ± 0.0005
